Experimental data: the supplement of paper PMC10307832

What was measured:
Assay in all cases: relative viability (nuclei count vs DMSO), 5 days (fraction); higher = more cells survive
NCI-H2170 = system: NCI-H2170
Outline: (§1)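 Lung cancer cell lines in 1536-well plates got either a single drug or a fixed anchor-drug dose together with five library-drug doses (not always all listed) in √10 steps, by pin tool, on the day after seeding. Nuclei were counted after 5 days, and relative viability is the treated-to-vehicle ratio of nuclei counts. Values are medians of duplicate plates.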

PC-3 [JPC-3] = system: PC-3 [JPC-3]
Outline: as §1

SK-MES-1 = system: SK-MES-1
Outline: as §1

H3255 = system: H3255
Outline: as §1

NCI-H1666 = system: NCI-H1666
Outline: as §1

EMC-BAC-2 = system: EMC-BAC-2
Outline: as §1

NCI-H1563 = system: NCI-H1563
Outline: as §1

NCI-H1975 = system: NCI-H1975
Outline: as §1

HCC-366 = system: HCC-366
Outline: as §1

NCI-H520 = system: NCI-H520
Outline: as §1

NCI-H596 = system: NCI-H596
Outline: as §1

LOU-NH91 = system: LOU-NH91
Outline: as §1

COR-L 105 = system: COR-L 105
Outline: as §1

EKVX = system: EKVX
Outline: as §1

NCI-H23 = system: NCI-H23
Outline: as §1

A-427 = system: A-427
Outline: as §1

NCI-H441 = system: NCI-H441
Outline: as §1

NCI-H1755 = system: NCI-H1755
Outline: as §1

LK-2 = system: LK-2
Outline: as §1

NCI-H1734 = system: NCI-H1734
Outline: as §1

## CC(=O)O[C@@]12CO[C@@H]1C[C@H](O)[C@@]1(C)C(=O)[C@H](O)C3=C(C)[C@@H](OC(=O)[C@H](O)[C@@H](NC(=O)OC(C)(C)C)c4ccccc4)C[C@@](O)([C@@H](OC(=O)c4ccccc4)[C@H]21)C3(C)C [Docetaxel] + Cc1nc(NC(=O)N2CCC[C@H]2C(N)=O)sc1-c1ccnc(C(C)(C)C(F)(F)F)c1 [Alpelisib] (partner 2 µM)
NCI-H2170; first compound 0.0002 µM
  relative viability: 0.83
NCI-H2170; first compound 0.000632 µM
  relative viability: 0.632
NCI-H2170; first compound 0.002 µM
  relative viability: 0.451
NCI-H2170; first compound 0.006325 µM
  relative viability: 0.228
NCI-H2170; first compound 0.02 µM
  relative viability: 0.175
PC-3 [JPC-3]; first compound 0.0002 µM
  relative viability: 1.02
PC-3 [JPC-3]; first compound 0.000632 µM
  relative viability: 1.07
PC-3 [JPC-3]; first compound 0.002 µM
  relative viability: 0.781
PC-3 [JPC-3]; first compound 0.006325 µM
  relative viability: 0.279
PC-3 [JPC-3]; first compound 0.02 µM
  relative viability: 0.167
SK-MES-1; first compound 0.0002 µM
  relative viability: 0.932
SK-MES-1; first compound 0.000632 µM
  relative viability: 0.892
SK-MES-1; first compound 0.002 µM
  relative viability: 0.484
SK-MES-1; first compound 0.006325 µM
  relative viability: 0.224
SK-MES-1; first compound 0.02 µM
  relative viability: 0.104
H3255; first compound 0.0002 µM
  relative viability: 0.572
H3255; first compound 0.000632 µM
  relative viability: 0.722
H3255; first compound 0.002 µM
  relative viability: 0.348
H3255; first compound 0.006325 µM
  relative viability: 0.251
NCI-H1666; first compound 0.0002 µM
  relative viability: 0.803
NCI-H1666; first compound 0.000632 µM
  relative viability: 0.406
NCI-H1666; first compound 0.002 µM
  relative viability: 0.352
NCI-H1666; first compound 0.006325 µM
  relative viability: 0.276
NCI-H1666; first compound 0.02 µM
  relative viability: 0.168
EMC-BAC-2; first compound 0.0002 µM
  relative viability: 0.694
EMC-BAC-2; first compound 0.000632 µM
  relative viability: 0.626
EMC-BAC-2; first compound 0.002 µM
  relative viability: 0.385
EMC-BAC-2; first compound 0.006325 µM
  relative viability: 0.246
EMC-BAC-2; first compound 0.02 µM
  relative viability: 0.154
NCI-H1563; first compound 0.0002 µM
  relative viability: 0.879
NCI-H1563; first compound 0.000632 µM
  relative viability: 0.926
NCI-H1563; first compound 0.002 µM
  relative viability: 0.809
NCI-H1563; first compound 0.006325 µM
  relative viability: 0.807
NCI-H1563; first compound 0.02 µM
  relative viability: 0.55
NCI-H1975; first compound 0.0002 µM
  relative viability: 0.617
NCI-H1975; first compound 0.000632 µM
  relative viability: 0.437
NCI-H1975; first compound 0.006325 µM
  relative viability: 0.156
NCI-H1975; first compound 0.02 µM
  relative viability: 0.122
HCC-366; first compound 0.0002 µM
  relative viability: 0.331
HCC-366; first compound 0.000632 µM
  relative viability: 0.311
HCC-366; first compound 0.002 µM
  relative viability: 0.0519
HCC-366; first compound 0.006325 µM
  relative viability: 0.0149
HCC-366; first compound 0.02 µM
  relative viability: 0.0109
NCI-H520; first compound 0.0002 µM
  relative viability: 0.786
NCI-H520; first compound 0.000632 µM
  relative viability: 0.95
NCI-H520; first compound 0.002 µM
  relative viability: 0.287
NCI-H520; first compound 0.006325 µM
  relative viability: 0.152
NCI-H520; first compound 0.02 µM
  relative viability: 0.13
NCI-H596; first compound 0.0002 µM
  relative viability: 0.616
NCI-H596; first compound 0.000632 µM
  relative viability: 0.516
NCI-H596; first compound 0.002 µM
  relative viability: 0.553
NCI-H596; first compound 0.006325 µM
  relative viability: 0.457
NCI-H596; first compound 0.02 µM
  relative viability: 0.336
LOU-NH91; first compound 0.0002 µM
  relative viability: 0.73
LOU-NH91; first compound 0.000632 µM
  relative viability: 0.737
LOU-NH91; first compound 0.002 µM
  relative viability: 0.565
LOU-NH91; first compound 0.006325 µM
  relative viability: 0.394
LOU-NH91; first compound 0.02 µM
  relative viability: 0.368
COR-L 105; first compound 0.0002 µM
  relative viability: 0.828
COR-L 105; first compound 0.000632 µM
  relative viability: 0.952
COR-L 105; first compound 0.002 µM
  relative viability: 0.475
COR-L 105; first compound 0.006325 µM
  relative viability: 0.522
COR-L 105; first compound 0.02 µM
  relative viability: 0.306
EKVX; first compound 0.0002 µM
  relative viability: 0.884
EKVX; first compound 0.000632 µM
  relative viability: 0.853
EKVX; first compound 0.002 µM
  relative viability: 0.435
EKVX; first compound 0.006325 µM
  relative viability: 0.25
EKVX; first compound 0.02 µM
  relative viability: 0.146
NCI-H23; first compound 0.0002 µM
  relative viability: 0.612
NCI-H23; first compound 0.000632 µM
  relative viability: 0.512
NCI-H23; first compound 0.002 µM
  relative viability: 0.406
NCI-H23; first compound 0.006325 µM
  relative viability: 0.209
NCI-H23; first compound 0.02 µM
  relative viability: 0.0958
A-427; first compound 0.0002 µM
  relative viability: 1.02
A-427; first compound 0.000632 µM
  relative viability: 1.14
A-427; first compound 0.002 µM
  relative viability: 0.974
A-427; first compound 0.006325 µM
  relative viability: 0.204
A-427; first compound 0.02 µM
  relative viability: 0.164
NCI-H441; first compound 0.0002 µM
  relative viability: 0.579
NCI-H441; first compound 0.000632 µM
  relative viability: 0.677
NCI-H441; first compound 0.002 µM
  relative viability: 0.323
NCI-H441; first compound 0.006325 µM
  relative viability: 0.205
NCI-H441; first compound 0.02 µM
  relative viability: 0.172
NCI-H1755; first compound 0.0002 µM
  relative viability: 0.871
NCI-H1755; first compound 0.000632 µM
  relative viability: 0.792
NCI-H1755; first compound 0.002 µM
  relative viability: 0.434
NCI-H1755; first compound 0.006325 µM
  relative viability: 0.326
NCI-H1755; first compound 0.02 µM
  relative viability: 0.262
LK-2; first compound 0.0002 µM
  relative viability: 1.03
LK-2; first compound 0.000632 µM
  relative viability: 0.685
LK-2; first compound 0.002 µM
  relative viability: 0.262
LK-2; first compound 0.006325 µM
  relative viability: 0.244
LK-2; first compound 0.02 µM
  relative viability: 0.231
NCI-H1734; first compound 0.0002 µM
  relative viability: 0.614
NCI-H1734; first compound 0.000632 µM
  relative viability: 0.67
NCI-H1734; first compound 0.002 µM
  relative viability: 0.406
NCI-H1734; first compound 0.006325 µM
  relative viability: 0.355
NCI-H1734; first compound 0.02 µM
  relative viability: 0.267
